Reference: patent US4732986A, “Benzothiazole derivatives, processes for their preparation and pharmaceutical compositions containing these compounds” (Ludwig Heumann & Co. GmbH, priority 1984, dated 1988)

What was measured:
[1] = system: leucocyte migration; assay: Leucocyte migration test (carrageenin-impregnated polyester sponge); assay type: in vivo; settings: male rats, 50 mg/kg i.g., given immediately after sponge implantation and after 5 and 21 hours
Protocol: 2. Leucocyte migration test
A polyester sponge impregnated with 2% carrageenin solution was implanted subcutaneously in the neck region in male rats (140-150 g) (see G. A. Higgs et al, Eur. J. Pharmacol. 66, 81 (1980), A. W. Ford-Hutchinson et al, J. Pharmacol. Methods 1, 3 (1978)). The sponges were removed after 24 hours. The leucocytes which had migrated in were washed out in a PBS solution (pH 7.4, 0.5% trypsin, 10 units/ml of heparin) at 37° C. for 30 minutes.
The sponges were then carefully pressed out and centrifuged (10 minutes, 500 revs/min). The leucocytes in the washing liquid were then counted. The test substances, which were taken up in 1% tylose, and the vehicle (1% tylose) were administered intragastrally with a stomach tube immediately after implantation of the sponge and after 5 hours and 21 hours. The percentage inhibition of leucocyte migration after administration of the test substances was compared with that of the controls. The average inhibitory doses (ED50) were calculated by means of the regression graphs.

[2] = system: PGE 2-synthesis and -release (cyclooxygenase); assay: Inhibition of PGE 2-synthesis and -release in vitro; assay type: cell-based
Excerpt: (§1) 3. Inhibition of PGE 2- and LTC 4-synthesis and -release

[3] = system: LTC 4-synthesis and -release (lipoxygenase); assay: Inhibition of LTC 4-synthesis and -release in vitro; assay type: cell-based
Excerpt: as §1

[4] = system: acute inflammatory oedema of the paws; assay: Rat's paw oedema test (carrageenin), inhibition of the increase in paw volume; assay type: in vivo; settings: po, 1 h, male rats, intragastral, one hour after carrageenin
Protocol: An acute inflammatory oedema of the paws was induced in male rats (100-120 g) by subplantar injection of 0.1 ml of 2% carrageenin (dissolved in aqueous 0.9% NaCl solution). The volume of the paws was measured with a volumetric paw measuring apparatus 1 hour and 4 hours after the carrageenin injection. The differences between the two measurements of the paws was calculated. The test substances were suspended in 1% tylose and administered intragastrally through a stomach tube one hour after the carrageenin injection. The control animals were only given the vehicle (1% tylose). The percentage inhibition of the increase in volume in the treated animals was obtained by a comparison with the untreated controls. The average inhibitory doses (ED50) were calculated by means of the regression curves.

Structure (SMILES): CN(C)C=NNc1nc2ccccc2s1 [Example 1, N^1-(benzothiazol-2-yl)-N^3,N^3-dimethylformamidrazone]
- Inhibition of leucocyte migration (control = 0%) [1]: 25%
- PGE2 (% of controls) ([2]; at 10^-4): 29 % of controls
- PGE2 (% of controls) ([2]; at 10^-5): 84 % of controls
- PGE2 (% of controls) ([2]; at 10^-6): 99 % of controls
- cyclooxygenase inhibition (in words) ([2]; conclusion from PGE2 test): cyclooxygenase inhibitor
- LTC4 (% of controls) ([3]; at 10^-4): 51 % of controls
- lipoxygenase inhibition (in words) ([3]; at 10^-4, conclusion from LTC4 test): lipoxygenase inhibition at 10^-4
- LTC4 (% of controls) ([3]; at 10^-5): > 100 % of controls
- LTC4 (% of controls) ([3]; at 10^-6): > 100 % of controls
- ED50 [4]: 14 mg/kg

Structure (SMILES): CC(=O)NNc1nc2ccc(C)cc2s1 [Example 6, N^2-(6-methylbenzothiazol-2-yl)-acetohydrazide]
- ED50 [4]: 50 mg/kg

Structure (SMILES): CN(C)C=NN(C)c1nc2ccccc2s1 [Example 2, N^1-(benzothiazol-2-yl)-N^1,N^3,N^3-trimethylformamidrazone]
- ED50 [4]: 15 mg/kg

Structure (SMILES): CC=NNc1nc2ccc(C)cc2s1 [Example 7, N-(6-methylbenzothiazol-2-yl)acetaldehydehydrazone]
- ED50 [4]: 25 mg/kg

Structure (SMILES): CN(NC=O)c1nc2ccccc2s1 [Example 4, N^2-(benzothiazol-2-yl)-N^2-methyl-formhydrazide]
- Inhibition of leucocyte migration (control = 0%) [1]: 50%
- ED50 [4]: 50 mg/kg

Structure (SMILES): CCOC(C)=NNc1nc2ccccc2s1 [Example 5, N^2-(benzothiazol-2-yl)-ethyl-acetohydrazonate]
- Inhibition of leucocyte migration (control = 0%) [1]: 30%
- ED50 [4]: 25 mg/kg

Structure (SMILES): CC=NNc1nc2cc(Cl)ccc2s1 [Example 8]
- ED50 [4]: ~80 mg/kg
